Source: patent US12673975B2, “Cyclic peptide, cell scaffold material, cell separating material, and medium” (FUJIFILM Corporation, priority 2019, dated 2026)
Like-named read-outs stand apart in the source and are kept apart here. Starred links: 1 amine or outer side, 2 acyl side, 3 side chain; linkers in the order of their positions; H or OH if unused. Positions of bridges follow the written chain, without caps; N, C: chain ends. Non-standard residues stand in square brackets, D forms with d. Residues, ends and D or L forms follow the SMILES beside them. Pen = CC(C)(S)[C@H](N)C(=O)O; hCys = N[C@@H](CCS)C(=O)O; Dab = NCC[C@H](N)C(=O)O; Dap = NC[C@H](N)C(=O)O; X1 = O=C(C[*:2])[*:1]; X2 = O=C(C[*:1])[*:2]

Experiments:
human integrin αvβ5 = human integrin αvβ5 (Homo sapiens, UniProt P06756+P18084); assay: Evaluation of integrin binding property (surface plasmon resonance, Biacore 3000, immobilized cyclic peptide)
Sequence of human integrin αvβ5 (P06756 31-1048): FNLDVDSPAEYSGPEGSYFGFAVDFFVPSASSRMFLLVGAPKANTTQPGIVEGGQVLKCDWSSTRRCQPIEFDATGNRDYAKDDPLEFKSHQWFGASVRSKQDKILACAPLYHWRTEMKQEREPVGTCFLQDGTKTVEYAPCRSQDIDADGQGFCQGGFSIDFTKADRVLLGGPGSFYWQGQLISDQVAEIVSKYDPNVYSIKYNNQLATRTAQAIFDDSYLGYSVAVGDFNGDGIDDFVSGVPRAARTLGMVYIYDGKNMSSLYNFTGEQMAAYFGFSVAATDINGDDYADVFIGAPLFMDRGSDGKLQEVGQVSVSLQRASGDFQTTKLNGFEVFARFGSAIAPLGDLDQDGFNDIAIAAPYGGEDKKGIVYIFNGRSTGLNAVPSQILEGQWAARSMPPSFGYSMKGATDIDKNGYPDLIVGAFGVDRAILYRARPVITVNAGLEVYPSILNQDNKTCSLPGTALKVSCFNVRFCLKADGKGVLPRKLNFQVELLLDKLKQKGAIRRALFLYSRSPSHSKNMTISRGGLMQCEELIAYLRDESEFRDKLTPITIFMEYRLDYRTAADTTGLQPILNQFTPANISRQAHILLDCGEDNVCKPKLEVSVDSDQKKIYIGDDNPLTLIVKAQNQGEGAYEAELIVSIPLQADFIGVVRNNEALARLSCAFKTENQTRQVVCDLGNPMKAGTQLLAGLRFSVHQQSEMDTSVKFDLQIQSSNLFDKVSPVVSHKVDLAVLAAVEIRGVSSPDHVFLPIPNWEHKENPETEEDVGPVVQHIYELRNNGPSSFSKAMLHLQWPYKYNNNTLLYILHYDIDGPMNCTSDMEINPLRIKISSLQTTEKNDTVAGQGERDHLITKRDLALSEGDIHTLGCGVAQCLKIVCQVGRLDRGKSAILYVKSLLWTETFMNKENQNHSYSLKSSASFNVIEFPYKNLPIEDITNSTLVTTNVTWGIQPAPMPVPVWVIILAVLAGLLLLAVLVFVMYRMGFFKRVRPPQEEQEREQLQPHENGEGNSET
Sequence of human integrin αvβ5 (P18084 24-799): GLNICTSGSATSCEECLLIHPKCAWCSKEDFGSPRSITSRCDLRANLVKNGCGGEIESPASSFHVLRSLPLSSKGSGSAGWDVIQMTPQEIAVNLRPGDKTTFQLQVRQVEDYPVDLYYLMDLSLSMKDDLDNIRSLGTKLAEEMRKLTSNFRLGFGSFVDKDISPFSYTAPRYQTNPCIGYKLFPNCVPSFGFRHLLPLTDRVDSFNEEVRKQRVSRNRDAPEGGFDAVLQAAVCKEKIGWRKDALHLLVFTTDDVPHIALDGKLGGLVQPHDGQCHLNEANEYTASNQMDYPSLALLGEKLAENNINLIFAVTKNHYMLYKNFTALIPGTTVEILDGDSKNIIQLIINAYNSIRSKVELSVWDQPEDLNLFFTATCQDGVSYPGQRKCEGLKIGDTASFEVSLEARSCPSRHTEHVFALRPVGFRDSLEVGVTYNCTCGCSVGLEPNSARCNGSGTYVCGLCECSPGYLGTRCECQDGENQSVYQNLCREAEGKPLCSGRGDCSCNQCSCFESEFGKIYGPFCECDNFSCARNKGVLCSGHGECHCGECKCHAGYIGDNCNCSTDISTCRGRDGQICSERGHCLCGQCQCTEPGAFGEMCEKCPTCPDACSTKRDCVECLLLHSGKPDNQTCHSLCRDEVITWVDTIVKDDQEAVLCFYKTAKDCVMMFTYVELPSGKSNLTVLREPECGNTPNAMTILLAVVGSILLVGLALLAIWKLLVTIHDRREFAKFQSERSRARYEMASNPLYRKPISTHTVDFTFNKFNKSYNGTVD
Method in brief: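 Human αvβ5 (30-1,000 nM) flowed for 10 min at 25 °C over immobilized cyclic peptide in 20 mM HEPES, 150 mM NaCl, 5 mM MgCl2, pH 7.4, followed by 30 min running buffer and 0.5 M EDTA regeneration. Dissociation constant from peptide minus unimmobilized channel, scored into standard grades.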

[1] = Evaluation of molecule stability (alkali treatment, residual rate by LC/MS); assay type: physicochemical; conditions: for Stability (molecule stability, residual rate of the cyclic peptide rank): alkali treatment, residual rate by LC/MS; for Performance evaluation: Stability (residual rate of cyclic peptide after alkali treatment): 500 μM peptide aqueous solution plus equivalent of 1 M sodium hydroxide, 15° C., 3 hours, LC/MS peak area
Method in brief: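 Stability read as percent of summed LC/MS peak area remaining versus untreated peptide (C18, 45 °C, 10 mM ammonium formate pH 3, ESI positive/negative). Treatment: 500 μM peptide in water plus an equivalent of 1 M NaOH, 15 °C for 3 hours.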

[2] = surface plasmon resonance, immobilized cyclic peptide, human integrin αvβ5, read-out: Binding activity (integrin binding property, dissociation constant rank)
[3] = SPR, 25° C., HEPES buffer with 5 mM magnesium chloride, integrin 30-1,000 nM, read-out: Performance evaluation: Binding activity (dissociation constant between the cyclic peptide and human integrin αvβ5)

Row | Structure (SMILES) | Kd (human integrin αvβ5; [2]) | Kd (human integrin αvβ5; [3]) | Stability (molecule stability, residual rate of the cyclic peptide rank) [1] | Performance evaluation: Stability (residual rate of cyclic peptide after alkali treatment) [1]
1 | CC(C)[C@@H]1NC(=O)[C@@H](NC(=O)[C@H](C)NC(=O)[C@H](CCCCN)NC(=O)[C@H](CCCCN)NC(=O)[C@@H](N)CCCCN)CCSCC(=O)NCC[C@@H](C(=O)NCC(=O)O)NC(=O)[C@H](C)NC(=O)[C@H](Cc2ccccc2)NC(=O)[C@H](CO)NC(=O)[C@H](CC(=O)O)NC(=O)CNC(=O)[C@H](CCCNC(=N)N)NC(=O)[C@@H]2CCCN2C1=O [Cyclic peptide 97, KKKA-(Hcy)-VPRGDSFA(Dab(acetyl))G] (H-KKKA[hCys]VPRGDSFA[Dab]G-OH; linker 5-14 via X2) |  | < 50 nM |  | A (The residual rate of the cyclic peptide is 70% or more.)
2 | CC[C@H](C)[C@@H]1NC(=O)[C@@H](NC(=O)[C@H](C)NC(=O)[C@H](CCCCN)NC(=O)[C@H](CCCCN)NC(=O)[C@@H](N)CCCCN)CCSCC(=O)NCC[C@@H](C(=O)N[C@@H](C)C(=O)O)NC(=O)[C@H](C)NC(=O)[C@H](Cc2ccccc2)NC(=O)[C@H](C)NC(=O)[C@H](CC(=O)O)NC(=O)CNC(=O)[C@H](CCCNC(=N)N)NC(=O)[C@@H]2CCCN2C1=O [Cyclic peptide 90, KKKA-(Hcy)-IPRGDAFA(Dab(acetyl))A] (H-KKKA[hCys]IPRGDAFA[Dab]A-OH; linker 5-14 via X2) |  | < 50 nM |  | A (The residual rate of the cyclic peptide is 70% or more.)
3 | C[C@H](NC(=O)[C@@H]1CCNC(=O)CSCC[C@H](NC(=O)[C@H](CCCCN)NC(=O)[C@H](CCCCN)NC(=O)[C@@H](N)CCCCN)C(=O)N2CCC[C@H]2C(=O)N[C@@H](CCCNC(=N)N)C(=O)NCC(=O)N[C@@H](CC(=O)O)C(=O)N[C@@H](CC(N)=O)C(=O)N[C@@H](Cc2ccccc2)C(=O)N[C@@H](CCCNC(=N)N)C(=O)N1)C(=O)O [Cyclic peptide 9, KKK-(Hcy)-PRGDNFR(Dab(acetyl))A] (H-KKK[hCys]PRGDNFR[Dab]A-OH; linker 4-12 via X2) |  | 100 to 200 nM |  | A (The residual rate of the cyclic peptide is 70% or more.)
4 | CC[C@H](C)[C@@H]1NC(=O)[C@@H](NC(=O)CNC(=O)[C@H](CCCCN)NC(=O)[C@H](CCCCN)NC(=O)[C@@H](N)CCCCN)CCCCNC(=O)CSCC[C@@H](C(=O)N[C@@H](C)C(=O)O)NC(=O)[C@H](CCCNC(=N)N)NC(=O)[C@H](Cc2ccccc2)NC(=O)[C@H]([C@@H](C)O)NC(=O)[C@H](CC(=O)O)NC(=O)CNC(=O)[C@H](CCCNC(=N)N)NC(=O)[C@@H]2CCCN2C1=O [Cyclic peptide 120, KKKG(Lys(acetyl))IPRGDTFR-(Hcy)-A] (H-KKKGKIPRGDTFR[hCys]A-OH; linker 5-14 via X1) | 50 to 100 nM |  | A (The residual rate of the cyclic peptide is 70% or more.) | 
5 | CC[C@H](C)[C@@H]1NC(=O)[C@@H](NC(=O)[C@H](CCCCN)NC(=O)[C@H](CCCCN)NC(=O)[C@@H](N)CCCCN)CCSCC(=O)NCC[C@@H](C(=O)O)NC(=O)[C@H](Cc2ccccc2)NC(=O)[C@H](C(C)C)NC(=O)[C@H](CC(=O)O)NC(=O)CNC(=O)[C@H](CCCNC(=N)N)NC(=O)[C@@H]2CCCN2C1=O [Cyclic peptide 65, KKK-(Hcy)-IPRGDVF(Dab(acetyl))] (H-KKK[hCys]IPRGDVF[Dab]-OH; linker 4-12 via X2) |  | 50 to 100 nM |  | A (The residual rate of the cyclic peptide is 70% or more.)

Second part, led by results:

Row | Kd (human integrin αvβ5; [2]) | Kd (human integrin αvβ5; [3]) | Structure (SMILES) | Stability (molecule stability, residual rate of the cyclic peptide rank) [1] | Performance evaluation: Stability (residual rate of cyclic peptide after alkali treatment) [1]
6 | < 50 nM |  | CC[C@H](C)[C@@H]1NC(=O)[C@@H](NC(=O)[C@H](C)NC(=O)[C@H](CCCCN)NC(=O)[C@H](CCCCN)NC(=O)[C@@H](N)CCCCN)CCSCC(=O)NCCCC[C@@H](C(=O)N[C@@H](C)C(=O)O)NC(=O)[C@H](C)NC(=O)[C@H](Cc2ccccc2)NC(=O)[C@H](CO)NC(=O)[C@H](CC(=O)O)NC(=O)CNC(=O)[C@H](CCCNC(=N)N)NC(=O)[C@@H]2CCCN2C1=O [Cyclic peptide 123, KKKA-(Hcy)-IPRGDSFA(Lys(acetyl))A] (H-KKKA[hCys]IPRGDSFAKA-OH; linker 5-14 via X2) | A (The residual rate of the cyclic peptide is 70% or more.) | 
7 |  | 50 to 100 nM | CC(C)[C@@H]1NC(=O)[C@@H](NC(=O)[C@H](C)NC(=O)[C@H](CCCCN)NC(=O)[C@H](CCCCN)NC(=O)[C@@H](N)CCCCN)CCSCC(=O)NCC[C@@H](C(=O)N[C@@H](CC(=O)O)C(=O)O)NC(=O)[C@H](CCCNC(=N)N)NC(=O)[C@H](Cc2ccc(O)cc2)NC(=O)[C@H](CC(N)=O)NC(=O)[C@H](CC(=O)O)NC(=O)CNC(=O)[C@H](CCCNC(=N)N)NC(=O)[C@@H]2CCCN2C1=O [Cyclic peptide 29, KKKA-(Hcy)-VPRGDNYR(Dab(acetyl))D] (H-KKKA[hCys]VPRGDNYR[Dab]D-OH; linker 5-14 via X2) |  | A (The residual rate of the cyclic peptide is 70% or more.)
8 | < 50 nM |  | CC[C@H](C)[C@@H]1NC(=O)[C@@H](NC(=O)CNC(=O)[C@H](CCCCN)NC(=O)[C@H](CCCCN)NC(=O)[C@@H](N)CCCCN)CNC(=O)CSC(C)(C)[C@@H](C(=O)N[C@@H](C)C(=O)O)NC(=O)[C@H](CCCNC(=N)N)NC(=O)[C@H](Cc2ccccc2)NC(=O)[C@H]([C@@H](C)O)NC(=O)[C@H](CC(=O)O)NC(=O)CNC(=O)[C@H](CCCNC(=N)N)NC(=O)[C@@H]2CCCN2C1=O [Cyclic peptide 132, KKKG(Dap(acetyl))IPRGDTFR-(Pen)-A] (H-KKKG[Dap]IPRGDTFR[Pen]A-OH; linker 5-14 via X1) | A (The residual rate of the cyclic peptide is 70% or more.) | 
9 |  | < 50 nM | C[C@H](NC(=O)[C@@H]1CCNC(=O)CSCC[C@H](NC(=O)CNC(=O)[C@H](CCCCN)NC(=O)[C@H](CCCCN)NC(=O)[C@@H](N)CCCCN)C(=O)N[C@@H](CCC(=O)O)C(=O)N2CCC[C@H]2C(=O)N[C@@H](CCCNC(=N)N)C(=O)NCC(=O)N[C@@H](CC(=O)O)C(=O)N[C@@H]([C@@H](C)O)C(=O)N[C@@H](Cc2ccccc2)C(=O)N[C@@H](CCCNC(=N)N)C(=O)N1)C(=O)O [Cyclic peptide 69, KKKG-(Hcy)-EPRGDTFR(Dab(acetyl))A] (H-KKKG[hCys]EPRGDTFR[Dab]A-OH; linker 5-14 via X2) |  | A (The residual rate of the cyclic peptide is 70% or more.)
10 | 50 to 100 nM |  | CC[C@H](C)[C@@H]1NC(=O)[C@@H](NC(=O)CNC(=O)[C@H](CCCCN)NC(=O)[C@H](CCCCN)NC(=O)[C@@H](N)CCCCN)C(C)(C)SCC(=O)NCCCC[C@@H](C(=O)N[C@@H](C)C(=O)O)NC(=O)[C@H](CCCNC(=N)N)NC(=O)[C@H](Cc2ccccc2)NC(=O)[C@H]([C@@H](C)O)NC(=O)[C@H](CC(=O)O)NC(=O)CNC(=O)[C@H](CCCNC(=N)N)NC(=O)[C@@H]2CCCN2C1=O [Cyclic peptide 131, KKKG-(Pen)-IPRGDTFR(Lys(acetyl))A] (H-KKKG[Pen]IPRGDTFRKA-OH; linker 5-14 via X2) | A (The residual rate of the cyclic peptide is 70% or more.) | 
11 | < 50 nM |  | CC[C@H](C)[C@@H]1NC(=O)[C@@H](NC(=O)CNC(=O)[C@H](CCCCN)NC(=O)[C@H](CCCCN)NC(=O)[C@@H](N)CCCCN)CCSCC(=O)NC[C@@H](C(=O)N[C@@H](C)C(=O)O)NC(=O)[C@H](CCCNC(=N)N)NC(=O)[C@H](Cc2ccccc2)NC(=O)[C@H]([C@@H](C)O)NC(=O)[C@H](CC(=O)O)NC(=O)CNC(=O)[C@H](CCCNC(=N)N)NC(=O)[C@@H]2CCCN2C1=O [Cyclic peptide 114, KKKG-(Hcy)-IPRGDTFR(Dap(acetyl))A] (H-KKKG[hCys]IPRGDTFR[Dap]A-OH; linker 5-14 via X2) | B (The residual rate of the cyclic peptide is 50% or more and less than 70%.) | 
12 | < 50 nM |  | CC(C)[C@@H]1NC(=O)[C@@H](NC(=O)[C@H](C)NC(=O)[C@H](CCCCN)NC(=O)[C@H](CCCCN)NC(=O)[C@@H](N)CCCCN)CCSCC(=O)NCC[C@@H](C(=O)N[C@@H](C)C(=O)O)NC(=O)[C@H](C)NC(=O)[C@H](Cc2ccccc2)NC(=O)[C@H]([C@@H](C)O)NC(=O)[C@H](CC(=O)O)NC(=O)CNC(=O)[C@H](CCCNC(=N)N)NC(=O)[C@@H]2CCCN2C1=O [Cyclic peptide 108, KKKA-(Hcy)-VPRGDTFA(Dab(acetyl))A] (H-KKKA[hCys]VPRGDTFA[Dab]A-OH; linker 5-14 via X2) | A (The residual rate of the cyclic peptide is 70% or more.) | 
13 | < 50 nM |  | CC(C)[C@@H]1NC(=O)[C@@H](NC(=O)[C@H](CCCCN)NC(=O)[C@H](CCCCN)NC(=O)[C@@H](N)CCCCN)CCSCC(=O)NCC[C@@H](C(=O)O)NC(=O)[C@H](C)NC(=O)[C@H](Cc2ccccc2)NC(=O)[C@H]([C@@H](C)O)NC(=O)[C@H](CC(=O)O)NC(=O)CNC(=O)[C@H](CCCNC(=N)N)NC(=O)[C@H]([C@@H](C)O)NC1=O [Cyclic peptide 150, KKK-(Hcy)-VTRGDTFA(Dab(acetyl))] (H-KKK[hCys]VTRGDTFA[Dab]-OH; linker 4-13 via X2) | A (The residual rate of the cyclic peptide is 70% or more.) | 
